Patent US11986000B2, “Whey protein extracts and their use as sphingomyelin source” (SOCIETE DES PRODUITS NESTLE S.A., priority 2017, dated 2024)

Assay: Determination of total SM in raw materials and finished product by HPLC-ELSD
Settings: analysed versus theoretical SM in infant formula powders
Method: 1.2. Determination of Total SM in Raw Materials and Finished Product by HPLC-ELSD
Calibration standard stock solution was prepared by dissolving 140 mg of certified milk lecithin and 10 mg of PG (internal standard) in 100 mL of chloroform/methanol (9/1, v/v) solution. Further dilutions of this solution was performed in chloroform/methanol (9/1, v/v) to yield six standard levels, ranging from 0.012 to 0.249 g L−1 for SM and 0.005 to 0.100 g L^−1 for PG.
Sample extraction and chromatographic analysis, including chromatography columns and detector settings, were completed according to the procedure as described by Braun et al. (2010) with the following minor modifications. […] EZChrom software package (Agilent Technologies) was used to control the chromatograph and results were analysed using OpenLab software (Agilent Technologies).
SM was identified within the certified milk lecithin based on peak location in the elution sequence, retention time and characteristic peak shape, as described by Braun et al. (2010). […] A six-point calibration curve was prepared for both SM ([…], R^2=:=::0.996) and PG (0.025-0.507 g L^−1, R^2=:=::0.996) for quantification. […] Quantification of SM was as described by Braun et al. (2010) using the following equation: […]

Substance: sphingomyelin [SM]
- Stability of SM during the manufacturing processes: stable against degradation
